Data on 3 compounds can be found in the NIST ThermoML archive (doi:10.1021/acs.jced.7b00802).

Numbers after ± are expanded uncertainties.

The conditions of the series: Liquid, Ebulliometric method (Recirculating still).

One may read the vapor or sublimation pressure as the equilibrium pressure above the liquid or solid.

On to `COCCOC` [1,2-dimethoxyethane], for which, for the setting “357.75 K”, the “vapor or sublimation pressure” value is given as 101.3 ± 0.8 kPa. `CCCCCC` [hexane]: the “vapor or sublimation pressure” value (341.88 K) came out at 101.3 ± 0.8 kPa. With `CC1CCCC1` [methylcyclopentane], under “344.96 K”, the “vapor or sublimation pressure” value is reported as 101.3 ± 0.8 kPa.
